Reference: patent US9169255B2, “Caffeinated compounds and compositions for treatment of amyloid diseases and synucleinopathies” (ProteoTech Inc, priority 2011, dated 2015)

How the values were obtained:
Type in all cases: biochemical
Aβ 1-42 [1] = target: T1, Aβ 1-42 (Homo sapiens, UniProt P05067); test: Thioflavin T fluorometry, inhibition of β-sheet formation of non-fibrillar Aβ 1-42; design: pre-fibrillized human Aβ 1-42 (rPeptide); purchased rPeptide; settings: for Thioflavin T fluorometry-% Inhibition: 24 hours
T1 sequence (P05067 672-713 limits assumed): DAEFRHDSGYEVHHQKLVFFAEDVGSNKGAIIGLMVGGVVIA
Experimental: To test whether the compounds can inhibit β-sheet formation of Aβ, the same assay as described in Example 5 was utilized, but the Aβ was prepared so that it is in a non-fibrillar state at the start of the assay. To achieve this non-fibrillar state, lyophilized human Aβ 1-42 (rPeptide) was dissolved to 1 mg/mL (220 μM) using 2 mM NaOH and the pH was adjusted to 10.5 with small (μL) additions of 1M NaOH. The clear solution was then frozen, re-lyophilized, and dissolved in a buffer containing 9.5 mM phosphate, 137 mM sodium chloride and 2.7 mM potassium chloride (phosphate-buffered saline; PBS) to a concentration of 2 mg/mL (440 μM) Aβ. […] The reactions containing Aβ+test compounds (or Aβ+PBS as a control for Aβ aggregation) were then incubated for 24 hours, the incubation mixtures were diluted 1:20 to 0.05 mg/mL Aβ and 50 μL of each diluted incubation mixture was transferred into a 96-well microtiter plate containing 150 μL of distilled water and 50 μL of a Thioflavin T solution (i.e. 500 μM Thioflavin T in 250 mM phosphate buffer, pH 6.8). The final concentration of Aβ was 2.2 μM and the concentration of Thioflavin T reagent was 100 μM in 50 mM phosphate buffer, pH 6.8. The fluorescence was read at 485 nm (444 nm excitation wavelength) using an ELISA plate fluorometer after subtraction with PBS buffer alone or compound alone, as blank.

Aβ 1-42 [2] = target: T1, Aβ 1-42; test: Circular dichroism (CD) spectroscopy, inhibition of β-sheet formation of Aβ; settings: for magnitude of the change of the ellipticity minimum at 218 nm relative to Aβ alone: 24 hours of incubation, at appropriate concentrations; for Circular Dichroism Spectroscopy -% Inhibition: 24 hours
Experimental: For this purpose, the Aβ reactions that were used in the Thioflavin T fluorometry assay (Part A in this Example) were assessed at 24 hours of aggregation. Aβ alone was also assessed by CD spectral analysis at t=0, prior to aggregation, (t=0, unfolded reference control). After 24 hours, reactions were diluted 20-fold in PBS and a CD spectrum for each reaction was acquired on a Jasco J-810 spectropolarimeter using a 0.1 cm path length cell. All spectra were recorded with a step size of 0.1 nm, a bandwidth of 1 nm, and an Aβ concentration of 0.05 mg/ml. The spectra were trimmed at the shortest wavelength that still provided a dynode voltage less than 600V. The trimmed spectra were then subjected to a data processing routine beginning with noise reduction by Fourier transform followed by subtraction of a blank spectrum (vehicle only without Aβ). These blank corrected spectra were then zeroed at 260 nm and the units converted from millidegrees to specific ellipticity.
Percent β-sheet was determined from processed spectra using the ellipticity minimum value at approximately 218 nm and referencing to a scale normalized to nearly fully folded and unfolded reference values, consistent with previous reports (Ramirez-Alvarado et al., J. Mol. Biol., 273:898-912, 1997; Andersen et al., J. Am. Chem. Soc., 121:9879-9880, 1999). The fully folded reference value was found by performing the described calculation on the spectrum of Aβ fibrillized for 24 hours (complete fibrillization), and assigning this difference the arbitrary value of 100% β-sheet. The unfolded reference was provided by the spectrum from the same sample at the initial time point (t=0) and ascribing the difference found here the arbitrary value of 0% β-sheet. These percent β-sheet values were then used to provide the respective relative % inhibition of β-sheet induced by the compounds at given molar ratio of test compound:Aβ.

α-synuclein fibrils = target: T2, α-synuclein fibrils (Homo sapiens, UniProt P37840); test: Thioflavin T fluorometry, disruption of pre-formed α-synuclein fibrils; settings: 2-day incubation
T2 construct: purchased rPeptide, Bogart, Calif
Experimental: In this set of studies, the efficacy of certain compounds provided herein to cause a disassembly/disruption/disaggregation of pre-formed fibrils of Parkinson's disease (i.e. consisting of α-synuclein fibrils) was analyzed. For the studies described below in Parts A and B, 69 μM of α-synuclein (rPeptide, Bogart, Calif.) was first incubated at 37° C. for 4 days in 20 mM sodium acetate buffer at pH 4 with circular shaking (1,300 rpm) to cause α-synuclein aggregation and fibril formation.
In one study, Thioflavin T fluorometry was used to determine the effects of the compounds on α-synuclein fibrils. […] In this assay Thioflavin T binds specifically to fibrillar protein, and this binding produces a fluorescence enhancement at 485 nm that is directly proportional to the amount of fibrils formed.
Following initial α-synuclein fibrilization as described above, the α-synuclein (6.9 μM) mixture was then incubated at 37° C. for 2 days with shaking (200 rpm), either alone, or in the presence of one of the compounds (at test compound:α-synuclein molar ratios of 10:1, 1:1, 0.1:1, and 0.01:1) in phosphate-buffered saline, pH 7.4+0.02% sodium azide. Following 2 days of co-incubation, 50 μl (5 μg) of each incubation mixture was transferred into a 96-well microtiter plate containing 150 μl of distilled water and 50 μl of a Thioflavin T solution (i.e. 500 μM Thioflavin T in 250 mM phosphate buffer, pH 6.8). The final concentration of Thioflavin T reagent is 100 μM in 50 mM phosphate buffer, pH 6.8. The fluorescence was read at 485 nm (444 nm excitation wavelength) using an ELISA plate fluorometer. Subtraction of the signal obtained from a diluted reaction (blank) containing buffer alone or compound alone at a concentration equivalent to that of its corresponding α-synuclein-containing reaction was used to quantitate the amount of Thioflavin T fluorescence in each α-synuclein-containing reaction that is proportional to the protein fibril content in that reaction.

[3] = compound:peptide molar ratio 0.01:1
[4] = compound:peptide molar ratio 0.1:1
[5] = compound:peptide molar ratio 1:1
[6] = compound:peptide molar ratio 10:1

In the case of `Cn1c(=O)n(Cc2ccc(O)c(O)c2)c(=O)c2c1ncn2Cc1ccc(O)c(O)c1` [PD-151, 3-Methyl-1,7-bis(3′,4′-dihydroxybenzyl)xanthine], the “Thioflavin T fluorometry-% Inhibition” value (Aβ 1-42 [1]; compound:Aβ molar ratio 1:1) is reported as 9%, the “Thioflavin T fluorometry-% Inhibition” value (Aβ 1-42 [1]; compound:Aβ molar ratio 10:1) is reported as 87% and the “magnitude of the change of the ellipticity minimum at 218 nm relative to Aβ alone” value (Aβ 1-42 [2]) is reported as “reduced”. The “Circular Dichroism Spectroscopy -% Inhibition” value (Aβ 1-42 [2]; compound:Aβ molar ratio 0.5:1) was 38%, the “Circular Dichroism Spectroscopy -% Inhibition” value (Aβ 1-42 [2]; compound:Aβ molar ratio 1:1) was 43% and the “Circular Dichroism Spectroscopy -% Inhibition” value (Aβ 1-42 [2]; compound:Aβ molar ratio 5:1) was 66%. For the same compound, the “Circular Dichroism Spectroscopy -% Inhibition” value (Aβ 1-42 [2]; compound:Aβ molar ratio 10:1) was 67%, the “Thioflavin T fluorometry-% Inhibition” value (α-synuclein fibrils; [3]) was 4% and the “Thioflavin T fluorometry-% Inhibition” value (α-synuclein fibrils; [4]) was 15%. For the same compound, the “Thioflavin T fluorometry-% Inhibition” value (α-synuclein fibrils; [5]) was 56% and the “Thioflavin T fluorometry-% Inhibition” value (α-synuclein fibrils; [6]) was 89%.

For `Cn1cnc2c1c(=O)n(Cc1ccc(O)c(O)c1)c(=O)n2Cc1ccc(O)c(O)c1` [PD-150, 7-Methyl-1,3-bis(3′,4′-dihydroxy)benzylxanthine], the “Thioflavin T fluorometry-% Inhibition” value (Aβ 1-42 [1]; compound:Aβ molar ratio 1:1) was 23%, the “Thioflavin T fluorometry-% Inhibition” value (Aβ 1-42 [1]; compound:Aβ molar ratio 10:1) was 93% and the “magnitude of the change of the ellipticity minimum at 218 nm relative to Aβ alone” value (Aβ 1-42 [2]) was “reduced”. For the same compound, the “Circular Dichroism Spectroscopy -% Inhibition” value (Aβ 1-42 [2]; compound:Aβ molar ratio 0.5:1) was 40%, the “Circular Dichroism Spectroscopy -% Inhibition” value (Aβ 1-42 [2]; compound:Aβ molar ratio 1:1) was 42% and the “Circular Dichroism Spectroscopy -% Inhibition” value (Aβ 1-42 [2]; compound:Aβ molar ratio 5:1) was 69%. The “Circular Dichroism Spectroscopy -% Inhibition” value (Aβ 1-42 [2]; compound:Aβ molar ratio 10:1) was 62%, the “inhibition of β-sheet formation in Aβ (CD)” value (Aβ 1-42 [2]; test compound:Aβ molar ratios ≧5:1) was “at least 62%” and the “Thioflavin T fluorometry-% Inhibition” value (α-synuclein fibrils; [3]) was 0%. For the same compound, the “Thioflavin T fluorometry-% Inhibition” value (α-synuclein fibrils; [4]) was 0%, the “Thioflavin T fluorometry-% Inhibition” value (α-synuclein fibrils; [5]) was 48% and the “Thioflavin T fluorometry-% Inhibition” value (α-synuclein fibrils; [6]) was 84%.

For `Cn1c(=O)c2c(ncn2Cc2ccc(O)c(O)c2)n(Cc2ccc(O)c(O)c2)c1=O` [PD-152], the “Thioflavin T fluorometry-% Inhibition” value (Aβ 1-42 [1]; compound:Aβ molar ratio 5:1) was 23%, the “Thioflavin T fluorometry-% Inhibition” value (Aβ 1-42 [1]; compound:Aβ molar ratio 10:1) was 61% and the “magnitude of the change of the ellipticity minimum at 218 nm relative to Aβ alone” value (Aβ 1-42 [2]) was “reduced”. The “Circular Dichroism Spectroscopy -% Inhibition” value (Aβ 1-42 [2]; compound:Aβ molar ratio 0.5:1) was 26%, the “Circular Dichroism Spectroscopy -% Inhibition” value (Aβ 1-42 [2]; compound:Aβ molar ratio 1:1) was 42% and the “Circular Dichroism Spectroscopy -% Inhibition” value (Aβ 1-42 [2]; compound:Aβ molar ratio 5:1) was 35%. For the same compound, the “Circular Dichroism Spectroscopy -% Inhibition” value (Aβ 1-42 [2]; compound:Aβ molar ratio 10:1) was 57%, the “Thioflavin T fluorometry-% Inhibition” value (α-synuclein fibrils; [3]) was 0% and the “Thioflavin T fluorometry-% Inhibition” value (α-synuclein fibrils; [4]) was 4%. The “Thioflavin T fluorometry-% Inhibition” value (α-synuclein fibrils; [5]) was 52% and the “Thioflavin T fluorometry-% Inhibition” value (α-synuclein fibrils; [6]) was 86%.

In the case of “1,3-dimethyl-7-(3′,4′-dibenzyloxy)benzyl-8-(3′,4′-dihydroxyphenyl)xanthine [PD-154]”, the “Thioflavin T fluorometry-% Inhibition” value (Aβ 1-42 [1]; compound:Aβ molar ratio 5:1) is reported as 0%, the “Thioflavin T fluorometry-% Inhibition” value (Aβ 1-42 [1]; compound:Aβ molar ratio 10:1) is reported as 33% and the “Thioflavin T fluorometry-% Inhibition” value (α-synuclein fibrils; [3]) is reported as 7%. For the same compound, the “Thioflavin T fluorometry-% Inhibition” value (α-synuclein fibrils; [4]) was 10%, the “Thioflavin T fluorometry-% Inhibition” value (α-synuclein fibrils; [5]) was 25% and the “Thioflavin T fluorometry-% Inhibition” value (α-synuclein fibrils; [6]) was 43%.

With `Cn1c(=O)c2c(ncn2C)n(C)c1=O` [Caffeine, reference compound] the “inhibition of Aβ aggregation (Thioflavin T fluorometry)” value (Aβ 1-42 [1]; concentrations tested 50:1, 10:1 and 1:1) was “failed to inhibit” and the “magnitude of the change of the ellipticity minimum at 218 nm relative to Aβ alone” value (Aβ 1-42 [2]) was “no effect”.

With `Cn1c(=O)c2c(nc(-c3ccc(O)c(O)c3)n2C)n(C)c1=O` [PD-153, 1,3,7-trimethyl-8-(3′,4′-dihydroxyoxyphenyl)xanthine] the “magnitude of the change of the ellipticity minimum at 218 nm relative to Aβ alone” value (Aβ 1-42 [2]) was “reduced”, the “Circular Dichroism Spectroscopy -% Inhibition” value (Aβ 1-42 [2]; compound:Aβ molar ratio 5:1) was 8% and the “Circular Dichroism Spectroscopy -% Inhibition” value (Aβ 1-42 [2]; compound:Aβ molar ratio 10:1) was 24%. For the same compound, the “Thioflavin T fluorometry-% Inhibition” value (α-synuclein fibrils; [3]) was 7%, the “Thioflavin T fluorometry-% Inhibition” value (α-synuclein fibrils; [4]) was 17% and the “Thioflavin T fluorometry-% Inhibition” value (α-synuclein fibrils; [5]) was 18%. For the same compound, the “Thioflavin T fluorometry-% Inhibition” value (α-synuclein fibrils; [6]) was 37%.
